Some results are limits rather than exact numbers.

Our source for the % activity, % of control and % of inhibition values is ChEMBL document CHEMBL5465560, “Selectivity Literature for EUbOPEN Chemogenomic Library” (2024).

Assay [1] deals with T1, Protein arginine N-methyltransferase 7 (Homo sapiens) (UniProt Q9NVM4).
T1 sequence (whole entry): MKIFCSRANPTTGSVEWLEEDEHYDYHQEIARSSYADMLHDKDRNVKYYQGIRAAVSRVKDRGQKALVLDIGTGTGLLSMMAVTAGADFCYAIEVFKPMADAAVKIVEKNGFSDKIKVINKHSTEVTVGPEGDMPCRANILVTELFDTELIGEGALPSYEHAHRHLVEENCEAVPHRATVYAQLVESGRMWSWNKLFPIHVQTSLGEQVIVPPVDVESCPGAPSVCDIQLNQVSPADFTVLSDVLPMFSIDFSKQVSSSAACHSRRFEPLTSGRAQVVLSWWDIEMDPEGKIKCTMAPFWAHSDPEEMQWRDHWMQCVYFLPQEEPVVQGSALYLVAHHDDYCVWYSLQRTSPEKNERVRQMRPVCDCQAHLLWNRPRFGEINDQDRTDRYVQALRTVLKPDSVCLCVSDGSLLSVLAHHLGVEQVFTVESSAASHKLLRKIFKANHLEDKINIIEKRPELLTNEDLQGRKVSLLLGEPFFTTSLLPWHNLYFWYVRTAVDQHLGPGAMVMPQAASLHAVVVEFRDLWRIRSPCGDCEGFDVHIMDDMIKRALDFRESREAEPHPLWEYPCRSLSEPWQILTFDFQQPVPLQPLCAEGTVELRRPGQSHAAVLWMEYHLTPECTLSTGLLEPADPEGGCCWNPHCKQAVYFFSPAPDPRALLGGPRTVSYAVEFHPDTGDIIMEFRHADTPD
Description: Selectivity interaction (Methyltransferase screen (Scintillation proximity assays)) EUB0000255b PRMT7. Background: In a scintillation proximity assay essentially only radioactivity close to the scintillant gives light.

Assay [2] concerns the target Ribosomal protein S6 kinase alpha-3 (Homo sapiens, UniProt P51812). Description: Selectivity interaction (KinomeScan (DiscoverX)) EUB0000695a RPS6KA3. Conditions: at 100 nM.
Assay [3] deals with Serine/threonine-protein kinase pim-1 (Homo sapiens, UniProt P11309). In words: Selectivity interaction (KinomeScan (DiscoverX)) EUB0000607a PIM1. Conditions: at 10 µM.
In assay [4] the target is T2, Mitogen-activated protein kinase kinase kinase 13 (Homo sapiens) (UniProt O43283).
T2 sequence (whole entry): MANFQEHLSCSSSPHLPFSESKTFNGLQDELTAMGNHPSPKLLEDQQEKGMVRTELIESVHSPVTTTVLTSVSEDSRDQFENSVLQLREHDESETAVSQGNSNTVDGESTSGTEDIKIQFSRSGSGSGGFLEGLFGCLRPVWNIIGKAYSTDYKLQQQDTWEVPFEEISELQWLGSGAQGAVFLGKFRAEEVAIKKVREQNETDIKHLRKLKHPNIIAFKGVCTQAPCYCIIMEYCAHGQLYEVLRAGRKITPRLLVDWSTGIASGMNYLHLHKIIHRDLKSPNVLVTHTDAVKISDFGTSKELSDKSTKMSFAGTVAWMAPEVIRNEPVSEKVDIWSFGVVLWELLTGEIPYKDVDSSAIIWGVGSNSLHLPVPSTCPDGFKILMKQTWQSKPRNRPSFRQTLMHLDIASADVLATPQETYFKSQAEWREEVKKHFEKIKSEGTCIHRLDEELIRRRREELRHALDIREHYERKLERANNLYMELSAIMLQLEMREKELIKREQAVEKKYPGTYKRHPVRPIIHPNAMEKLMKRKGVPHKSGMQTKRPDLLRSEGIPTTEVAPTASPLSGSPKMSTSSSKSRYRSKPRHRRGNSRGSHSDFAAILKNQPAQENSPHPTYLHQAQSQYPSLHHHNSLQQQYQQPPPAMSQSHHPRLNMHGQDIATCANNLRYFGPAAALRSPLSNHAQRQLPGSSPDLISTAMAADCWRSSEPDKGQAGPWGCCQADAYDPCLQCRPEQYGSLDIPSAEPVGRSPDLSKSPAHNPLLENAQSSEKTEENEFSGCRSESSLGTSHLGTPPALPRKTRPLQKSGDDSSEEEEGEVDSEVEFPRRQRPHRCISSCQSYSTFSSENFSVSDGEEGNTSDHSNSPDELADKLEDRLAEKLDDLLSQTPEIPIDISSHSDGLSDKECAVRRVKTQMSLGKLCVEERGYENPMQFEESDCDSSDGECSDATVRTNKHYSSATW
In words: Selectivity interaction (KinomeScan (DiscoverX)) EUB0000607a MAP3K13. To be noted: at 10 µM.

Assay [5] deals with Phosphatidylinositol 4-phosphate 5-kinase type-1 gamma (Homo sapiens) (UniProt O60331). In words: Selectivity interaction (KinomeScan (DiscoverX)) EUB0000045b PIP5K1C.
The subject of assay [6] is Mast/stem cell growth factor receptor Kit (Homo sapiens), P10721 [D816V]. Description: (§1) Selectivity interaction (KinomeScan (DiscoverX)) EUB0001049a KIT. Conditions: at 1 µM.
Assay [7] has as its system Mast/stem cell growth factor receptor Kit (Homo sapiens), P10721 [V559D,T670I]. Described as §1. Conditions: at 1 µM.
Assay [8] concerns the target T3, Casein kinase I isoform alpha-like (Homo sapiens) (UniProt Q8N752).
T3 sequence (whole entry): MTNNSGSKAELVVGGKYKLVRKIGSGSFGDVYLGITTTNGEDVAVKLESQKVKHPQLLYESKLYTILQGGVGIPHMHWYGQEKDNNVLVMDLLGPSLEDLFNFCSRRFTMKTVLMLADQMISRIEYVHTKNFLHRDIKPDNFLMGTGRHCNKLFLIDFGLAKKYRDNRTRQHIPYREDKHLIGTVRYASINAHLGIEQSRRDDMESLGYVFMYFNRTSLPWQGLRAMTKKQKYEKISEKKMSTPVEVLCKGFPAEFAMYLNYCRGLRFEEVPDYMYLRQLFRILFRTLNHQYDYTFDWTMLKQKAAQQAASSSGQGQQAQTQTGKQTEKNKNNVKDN
Description: Selectivity interaction (KinomeScan (DiscoverX)) EUB0001049a CSNK1A1L. Conditions: at 1 µM.

Assay [9] deals with T4, Serine/threonine-protein kinase NLK (Homo sapiens) (UniProt Q9UBE8).
T4 sequence (whole entry): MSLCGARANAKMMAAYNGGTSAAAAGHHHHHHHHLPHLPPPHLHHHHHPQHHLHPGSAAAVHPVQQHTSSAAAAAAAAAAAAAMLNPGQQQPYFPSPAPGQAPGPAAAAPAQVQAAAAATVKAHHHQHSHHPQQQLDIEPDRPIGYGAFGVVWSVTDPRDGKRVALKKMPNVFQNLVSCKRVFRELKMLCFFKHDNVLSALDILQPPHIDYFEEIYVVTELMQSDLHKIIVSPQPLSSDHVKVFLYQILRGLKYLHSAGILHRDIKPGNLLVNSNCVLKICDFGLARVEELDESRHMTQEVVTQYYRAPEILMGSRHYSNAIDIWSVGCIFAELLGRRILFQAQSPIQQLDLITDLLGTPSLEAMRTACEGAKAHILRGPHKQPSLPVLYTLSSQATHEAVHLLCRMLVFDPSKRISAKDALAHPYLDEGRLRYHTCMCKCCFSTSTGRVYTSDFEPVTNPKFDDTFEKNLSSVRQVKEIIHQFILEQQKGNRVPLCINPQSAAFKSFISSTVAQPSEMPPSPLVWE
In words: Selectivity interaction (Upstate Kinase Profiler service (Millipore)) EUB0000056c NLK. To be noted: at 1 µM.

Phosphatidylinositol 4-phosphate 5-kinase type-1 gamma (Homo sapiens), sequence (O60331 whole entry): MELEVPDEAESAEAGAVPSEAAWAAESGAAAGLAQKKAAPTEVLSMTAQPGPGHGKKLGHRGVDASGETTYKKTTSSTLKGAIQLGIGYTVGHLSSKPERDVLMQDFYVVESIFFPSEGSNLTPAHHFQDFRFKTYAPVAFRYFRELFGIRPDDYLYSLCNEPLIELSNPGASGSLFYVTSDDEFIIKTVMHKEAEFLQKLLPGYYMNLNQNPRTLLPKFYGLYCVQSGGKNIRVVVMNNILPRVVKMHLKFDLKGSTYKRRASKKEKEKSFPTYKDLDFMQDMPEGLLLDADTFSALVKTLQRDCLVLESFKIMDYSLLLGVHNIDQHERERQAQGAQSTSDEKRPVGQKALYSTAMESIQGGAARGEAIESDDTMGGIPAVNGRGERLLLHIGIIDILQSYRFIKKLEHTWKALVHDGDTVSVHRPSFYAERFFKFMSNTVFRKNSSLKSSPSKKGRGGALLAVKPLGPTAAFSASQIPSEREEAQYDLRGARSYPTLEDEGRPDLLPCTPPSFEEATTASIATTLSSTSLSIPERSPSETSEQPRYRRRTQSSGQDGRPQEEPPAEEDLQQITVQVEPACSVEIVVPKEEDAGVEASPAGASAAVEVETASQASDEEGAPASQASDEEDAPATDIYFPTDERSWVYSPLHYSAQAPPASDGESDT
Serine/threonine-protein kinase pim-1, sequence (P11309 whole entry, looked up): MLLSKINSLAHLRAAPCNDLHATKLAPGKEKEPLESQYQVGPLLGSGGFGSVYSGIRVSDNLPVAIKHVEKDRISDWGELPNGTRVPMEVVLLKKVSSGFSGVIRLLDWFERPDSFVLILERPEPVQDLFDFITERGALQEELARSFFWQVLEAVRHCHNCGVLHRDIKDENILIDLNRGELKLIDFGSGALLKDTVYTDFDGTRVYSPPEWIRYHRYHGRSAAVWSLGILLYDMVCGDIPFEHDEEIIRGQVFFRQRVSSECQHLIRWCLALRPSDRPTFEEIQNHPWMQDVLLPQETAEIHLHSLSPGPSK
Ribosomal protein S6 kinase alpha-3, sequence (P51812 whole entry): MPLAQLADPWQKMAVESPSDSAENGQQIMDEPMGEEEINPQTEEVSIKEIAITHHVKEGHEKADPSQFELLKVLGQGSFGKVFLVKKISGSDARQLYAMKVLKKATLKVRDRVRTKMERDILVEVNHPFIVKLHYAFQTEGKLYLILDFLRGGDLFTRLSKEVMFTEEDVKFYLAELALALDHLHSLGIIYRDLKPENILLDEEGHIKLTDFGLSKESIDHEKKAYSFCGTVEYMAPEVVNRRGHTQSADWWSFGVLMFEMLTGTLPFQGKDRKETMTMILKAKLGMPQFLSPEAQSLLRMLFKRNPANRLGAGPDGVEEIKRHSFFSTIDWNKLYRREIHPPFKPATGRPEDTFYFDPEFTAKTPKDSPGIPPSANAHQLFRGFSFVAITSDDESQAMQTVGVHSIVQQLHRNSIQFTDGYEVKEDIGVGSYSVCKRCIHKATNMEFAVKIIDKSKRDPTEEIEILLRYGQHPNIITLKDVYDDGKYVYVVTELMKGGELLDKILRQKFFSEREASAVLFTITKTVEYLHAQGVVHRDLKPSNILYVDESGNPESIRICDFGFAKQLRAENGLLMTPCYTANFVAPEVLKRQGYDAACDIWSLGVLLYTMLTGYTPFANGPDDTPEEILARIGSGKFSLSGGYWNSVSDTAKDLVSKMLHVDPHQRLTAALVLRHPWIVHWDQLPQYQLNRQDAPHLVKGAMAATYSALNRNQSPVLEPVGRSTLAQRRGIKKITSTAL
Mast/stem cell growth factor receptor Kit (Homo sapiens), P10721 [V559D,T670I], sequence (P10721 whole entry V559D/T670I, canonical isoform): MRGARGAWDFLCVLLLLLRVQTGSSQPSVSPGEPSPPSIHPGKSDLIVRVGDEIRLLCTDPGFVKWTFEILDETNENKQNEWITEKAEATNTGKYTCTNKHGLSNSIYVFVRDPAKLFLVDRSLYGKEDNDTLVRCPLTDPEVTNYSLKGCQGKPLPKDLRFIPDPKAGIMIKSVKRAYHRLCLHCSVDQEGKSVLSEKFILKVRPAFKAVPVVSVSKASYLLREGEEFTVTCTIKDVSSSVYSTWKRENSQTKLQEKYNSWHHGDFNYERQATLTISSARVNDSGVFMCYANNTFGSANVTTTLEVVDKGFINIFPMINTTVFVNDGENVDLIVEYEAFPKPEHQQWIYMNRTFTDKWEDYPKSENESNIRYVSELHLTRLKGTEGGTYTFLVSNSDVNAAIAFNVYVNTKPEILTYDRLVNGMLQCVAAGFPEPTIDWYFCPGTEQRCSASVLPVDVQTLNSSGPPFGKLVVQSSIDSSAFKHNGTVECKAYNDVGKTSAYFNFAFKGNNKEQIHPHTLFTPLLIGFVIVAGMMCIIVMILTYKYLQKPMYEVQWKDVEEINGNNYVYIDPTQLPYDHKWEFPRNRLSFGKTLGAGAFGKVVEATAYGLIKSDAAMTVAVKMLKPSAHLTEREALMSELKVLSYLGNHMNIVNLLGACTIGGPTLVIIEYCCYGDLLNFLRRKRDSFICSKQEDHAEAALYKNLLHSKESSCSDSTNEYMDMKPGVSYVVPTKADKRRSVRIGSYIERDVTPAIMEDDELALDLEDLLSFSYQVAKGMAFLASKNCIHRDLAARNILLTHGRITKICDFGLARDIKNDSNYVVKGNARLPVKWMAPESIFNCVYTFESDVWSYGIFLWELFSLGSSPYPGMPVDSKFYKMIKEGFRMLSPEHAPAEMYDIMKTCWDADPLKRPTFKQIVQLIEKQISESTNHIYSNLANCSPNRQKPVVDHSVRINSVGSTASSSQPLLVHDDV
Mast/stem cell growth factor receptor Kit (Homo sapiens), P10721 [D816V], sequence (P10721 whole entry D816V): as the sequence (P10721 whole entry V559D/T670I, canonical isoform) above, with D559V, I670T, D816V counted along it

In the case of `COCCN1CCC(c2cc(CN(C)C(=O)c3cccc(Oc4ccccc4)c3)ccn2)CC1`, the % activity in assay [1] (at 1 µM) was above 95%; in [1] (at 10 µM) it was above 90%.
On to `Cc1cc(F)c(C(=O)Nc2cccc(-c3nncn3C(C)C)n2)cc1-n1cnc(C2CC2)c1`, for which, in [2], the % of control came out at 46%.
Turning to `CNC(=O)Nc1ccc(-c2nc(N3CC4CCC(C3)O4)c3cnn(C4CCC5(CC4)OCCO5)c3n2)cc1`, the % of control was 100% in [3] and 82% in assay [4].
In the case of `C=CC(=O)Nc1cc(-n2c(=O)ccc3cnc4ccc(-c5ccc(NS(C)(=O)=O)cc5)cc4c32)ccc1C`, the % of control in assay [5] (at 1 µM) is 89%; in [5] (at 10 µM), 29%.
Turning to `COc1cc(Nc2nc(C)cc(-c3cnn4nc(OC)ccc34)n2)cc(C(F)(F)F)c1`, the % of control in assay [6] was 96%; in assay [7] it was 85%; in [8], 100%.
As for `Cc1ccc(-c2ccc3c(ccc4sc5c(c43)NC[C@@H](C)NC5=O)n2)cn1`, in assay [9], the % of inhibition came to 25%.
